Patent publication US9745246B2, “Method for preparing a salt of acetylsalicylic acid and a basic amino acid” (UNITHER PHARMACEUTICALS, priority 2014, dated 2017)

Experiments:
[1] = Stability study, Experiment 1: dry product stored at 5° C. under inert atmosphere in the dark for 3 months; assay type: physicochemical; settings: storage 5° C.; for Stability over time: 3 months
Procedure: (§1) The analysis by HPLC is carried out according to the method of the European Pharmacopeia 2.2.29, as indicated below.
(§2) Residual moisture content: halogen loss on desiccation in a desiccator 5 g/90° C./20 min.
(§3) Water content: according to European Pharmacopeia 2.5.12, titration carried out by Karl Fisher titration on 1 g of ASL.
(§4) according to European Pharmacopeia 2.2.3, a solution is reconstituted by dissolving 1 g of ASL in 10 ml of water free of carbon dioxide, with stirring for 30 s. Its appearance is evaluated and its pH is measured.
(§5) Content of each unknown impurity: by HPLC assay, according to the operating protocol described above. The content of each impurity is determined by means of the following equation: […]
A study of stability of the product obtained in example 1 is carried out by storing the dry product under an inert atmosphere and in the dark, at a temperature of 5° C., for a period of 3 months.
At times T=0, T=1 month and T=3 months, a sample of product is taken and subjected to all the tests described in example 2.
By way of comparative example, the same experiment is carried out on a product obtained by means of the preparation process of the prior art described in document WO 2011/039432, providing in particular a molar deficiency in DL-lysine (more specifically, with an acetylsalicylic acid/DL lysine molar ratio equal to 1/0.89).

[2] = Stability study, Experiment 2: dry product (new synthesis batch) stored at 5° C. under inert atmosphere in the dark for 6 months; assay type: physicochemical; set-up: key to Appearance of the powder / Appearance of the reconstituted solution: C = complies; settings: storage 5° C.
Procedure: as §1, §2, §3, §4, §5
A study of stability of the product obtained in example 1 (new synthesis batch) is carried out by storing the dry product under an inert atmosphere and in the dark, at a temperature of 5° C., for a period of 6 months.
At times T=0, T=1 month, T=3 months and T=6 months, a sample of product is taken and subjected to all the tests described in example 2.

[3] = time 0 months, listed as Method in accordance with the invention
[4] = time 1 month, listed as Method in accordance with the invention
[5] = time 3 months, listed as Method in accordance with the invention

## DL-lysine acetylsalicylate [Process of WO 2011/039432, reference compound]
[1]; listed as product obtained by means of a process of the prior art
  Stability over time: much less stability over time
[1]; time 0 months
  HPLC content of acetylsalicylic acid (%): 93.6%
  Impurities (%): Salicylic acid: 1.9%
  Residual moisture content (%): 0.72%
  pH of the reconstituted solution: 5.2
[1]; time 1 month
  HPLC content of acetylsalicylic acid (%): 90.0%
  Impurities (%): Other unknown impurity: 0.026%
  Impurities (%): Salicylic acid: 1.9%
  Impurities (%): Sum of the impurities: 0.09%
  Residual moisture content (%): 0.61%
  pH of the reconstituted solution: 5.2
[1]; time 3 months
  HPLC content of acetylsalicylic acid (%): 91.6%
  Impurities (%): Other unknown impurity: 0.027%
  Impurities (%): Salicylic acid: 2.0%
  Impurities (%): Sum of the impurities: 0.07%
  Residual moisture content (%): 0.61%
  pH of the reconstituted solution: 5.1

## DL-lysine acetylsalicylate [ASL]
[1]; listed as product obtained by means of the method in accordance with the invention of exam
  Stability over time: remains stable over time
[1]; time 0 months
  Impurities (%): Other unknown impurity: 0.02%
  Impurities (%): Sum of the impurities: 0.15%
  Water content (%): 0.4%
[1]; [3]
  HPLC content of acetylsalicylic acid (%): 98.3%
  Impurities (%): Salicylic acid: 0.13%
  Residual moisture content (%): 0.4%
  pH of the reconstituted solution: 5.9
[1]; time 1 month
  Water content (%): 0.5%
[1]; [4]
  HPLC content of acetylsalicylic acid (%): 98.5%
  Impurities (%): Other unknown impurity: 0.02%
  Impurities (%): Salicylic acid: 0.17%
  Impurities (%): Sum of the impurities: 0.22%
  Residual moisture content (%): 0.6%
  pH of the reconstituted solution: 5.6
[1]; time 3 months
  Water content (%): 0.3%
[1]; [5]
  HPLC content of acetylsalicylic acid (%): 98.8%
  Impurities (%): Other unknown impurity: 0.02%
  Impurities (%): Salicylic acid: 0.21%
  Impurities (%): Sum of the impurities: 0.25%
  Residual moisture content (%): 0.6%
  pH of the reconstituted solution: 5.5
[2]; 6 months
  Stability over time: remains stable over time
[2]; time 0 months
  Appearance of the powder: C
  Appearance of the reconstituted solution: C
  HPLC content of acetylsalicylic acid (%): 97.5%
  Impurities (%): Other unknown impurity: 0.03%
  Impurities (%): Salicylic acid: 0.28%
  Impurities (%): Sum of the impurities: 0.32%
  Residual moisture content (%): 0.7%
  Water content (%): 0.4%
  pH of the reconstituted solution: 5.7
[2]; time 1 month
  Appearance of the powder: C
  Appearance of the reconstituted solution: C
  HPLC content of acetylsalicylic acid (%): 97.5%
  Impurities (%): Other unknown impurity: 0.03%
  Impurities (%): Salicylic acid: 0.28%
  Impurities (%): Sum of the impurities: 0.33%
  Residual moisture content (%): 0.5%
  Water content (%): 0.3%
  pH of the reconstituted solution: 5.8
[2]; time 3 months
  Appearance of the powder: C
  Appearance of the reconstituted solution: C
  HPLC content of acetylsalicylic acid (%): 98.1%
  Impurities (%): Other unknown impurity: 0.03%
  Impurities (%): Salicylic acid: 0.29%
  Impurities (%): Sum of the impurities: 0.33%
  Residual moisture content (%): 0.6%
  Water content (%): 0.3%
  pH of the reconstituted solution: 5.4
[2]; time 6 months
  Appearance of the powder: C
  Appearance of the reconstituted solution: C
  HPLC content of acetylsalicylic acid (%): 97.5%
  Impurities (%): Other unknown impurity: 0.03%
  Impurities (%): Salicylic acid: 0.30%
  Impurities (%): Sum of the impurities: 0.34%
  Residual moisture content (%): 0.6%
  Water content (%): 0.3%
  pH of the reconstituted solution: 6.3
